What was measured:
BCL2 WT = BCL2 WT (Homo sapiens (Human), UniProt P10415); experiment: TR-FRET competitive binding assay, BCL2 WT; conditions: Ki determined from IC50, read-out: TR_FRET EKI_Bcl2 WT
In short: (§1)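 Competitive TR-FRET displacement of fluorescein-PUMA peptide (2 or 20 nM) from 0.5 nM terbium-labelled N-terminal Halo-fusion BCL2 (1-207, wild type or mutant) or BCLXL (2-196), expressed in E. coli. Buffer 50 mM Hepes pH 7.5, 150 mM NaCl, 5% DMSO; 2 h at 23°C. 520/495 nm ratio fitted over 11 points for IC50, converted to Ki.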

BCL2 G101V [1] = molecular target: BCL2 G101V (Homo sapiens, UniProt P10415, G101V); experiment: TR-FRET competitive binding assay, BCL2 G101V; conditions: BCL2 G101V; Ki determined from IC50; read-out: TR_FRET EKI_Bcl2 G101V
In short: as §1

BCL2 G101V [2] = experiment: TR-FRET competitive binding assay, BCL2 G101V; set-up: species or system human; conditions: ratio Ki BCL2 G101V / Ki BCL2 WT
In short: as §1

BCL2 D103Y = BCL2 D103Y (Homo sapiens, UniProt P10415, D103Y); experiment: TR-FRET competitive binding assay, BCL2 D103Y; conditions: Ki determined from IC50, read-out: TR_FRET EKI_Bcl2 D103Y
In short: as §1

BCLXL WT = BCLXL WT (Homo sapiens (Human), UniProt Q07817); experiment: TR-FRET competitive binding assay, BCLXL WT; conditions: for Ki: BCLXL WT, Ki determined from IC50, read-out: TR_FRET EKI BclxL; for TR_FRET EKI BCLxL/WT selectivty ratio: ratio Ki BCLxL / Ki BCL2 WT
In short: as §1

KMS-12-PE Bcl-2 WT = experiment: In vitro cytotoxicity CellTiter-Glo 48 h, KMS-12-PE Bcl-2 WT; format: cell-based; conditions: Homo sapiens, KMS-12-PE, C50 = concentration needed to reach 50% of the cellular viability
In short: (§2)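 CTG luminescence read-out; C50 = concentration reaching 50% cellular viability. Cells: KMS-12-PE expressing Bcl-2 WT or G101V (lentiviral, TagRFP-sorted). 11-pt curve, 48 h, 37 °C/5% CO2.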

KMS-12-PE Bcl-2 G101V = experiment: In vitro cytotoxicity CellTiter-Glo 48 h, KMS-12-PE Bcl-2 G101V; format: cell-based; conditions: for Ratio (G101V/WT): C50 KMS-12-PE Bcl-2 G101V over C50 KMS-12-PE Bcl-2 WT; for IC50: Homo sapiens, KMS-12-PE, 48 h, CellTiter-Glo, C50 = concentration needed to reach 50% of the cellular viability
In short: as §2

BCLXL WT, sequence (Q07817 other isoform, or with tags, fused parts or gaps): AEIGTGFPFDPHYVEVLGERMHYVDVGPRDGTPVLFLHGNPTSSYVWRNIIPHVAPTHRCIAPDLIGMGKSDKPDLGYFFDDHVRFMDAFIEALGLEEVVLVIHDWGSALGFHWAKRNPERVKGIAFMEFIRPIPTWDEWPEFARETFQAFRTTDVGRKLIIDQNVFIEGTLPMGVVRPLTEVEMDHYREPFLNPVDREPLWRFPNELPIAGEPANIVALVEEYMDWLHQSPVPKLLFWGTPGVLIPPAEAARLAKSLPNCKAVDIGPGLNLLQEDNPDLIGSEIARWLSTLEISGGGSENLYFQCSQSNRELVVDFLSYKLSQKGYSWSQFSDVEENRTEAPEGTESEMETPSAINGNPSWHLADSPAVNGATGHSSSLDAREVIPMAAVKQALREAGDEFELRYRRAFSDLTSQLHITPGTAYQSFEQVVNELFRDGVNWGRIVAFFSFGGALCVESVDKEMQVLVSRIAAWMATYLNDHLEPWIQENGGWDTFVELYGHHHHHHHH

Row | Compound | Ki (BCL2 WT) | Ki (BCL2 G101V [1]) | TR_FRET EKI G101V/WT selectivty ratio (BCL2 G101V [2]) | Ki (BCL2 D103Y) | Ki (BCLXL WT) | TR_FRET EKI BCLxL/WT selectivty ratio (BCLXL WT) | IC50 (KMS-12-PE Bcl-2 WT) | Ratio (G101V/WT) (KMS-12-PE Bcl-2 G101V) | IC50 (KMS-12-PE Bcl-2 G101V)
1 | Cc1c(N(C(=O)c2cc(-c3cc4c(cc3C(=O)N3Cc5ccccc5C[C@H]3CN3CCCCC3)CN(C(=O)Cc3ccc(OCCN5CCOCC5)cc3Cl)CC4)n(C)c2C)c2ccc(O)cc2)cc(C#N)n1C [Example 161, 5-[2-[2-[2-chloro-4-(2-morpholinoethoxy)phenyl]acetyl]-7-[(3S)-3-(1-piperidylmethyl)-3,4-dihydro-1H-isoquinoline-2-carbonyl]-3,4-dihydro-1H-isoquinolin-6-yl]-N-(5-cyano-1,2-dimethyl-pyrrol-3-yl)-N-(4-hydroxyphenyl)-1,2-dimethyl-pyrrole-3-carboxamide] | 0.05 nM | 0.3 nM | 7.0 | 0.14 nM | 2.9 nM | 61.7 | 0.0092 µM | 4.6212 | 0.0427 µM
2 | Cc1c(C(=O)N(c2ccc(O)cc2)c2cc(C#N)n(C(F)F)c2C)cc(-c2cc3c(cc2C(=O)N2Cc4ccccc4C[C@H]2CN2CCCCC2)CN(C(=O)Cc2ccc(OCCN(C)C4CC4)cc2)CC3)n1C [Example 163, N-[5-cyano-1-(difluoromethyl)-2-methyl-pyrrol-3-yl]-5-[2-[2-[4-[2-[cyclopropyl(methyl)amino]ethoxy]phenyl]acetyl]-7-[(3S)-3-(1-piperidylmethyl)-3,4-dihydro-1H-isoquinoline-2-carbonyl]-3,4-dihydro-1H-isoquinolin-6-yl]-N-(4-hydroxyphenyl)-1,2-dimethyl-pyrrole-3-carboxamide] | 0.16 nM | 0.8 nM | 5.3 | 0.64 nM | 8.3 nM | 51.9 | 0.01 µM | 5.97 | 0.0597 µM
3 | COc1ncc(N(C(=O)c2cc(-c3cc4c(cc3C(=O)N3Cc5ccccc5C[C@H]3CN3CCCCC3)CN(C(=O)Cc3ccc(OCCN5CCOCC5)cc3F)CC4)n(C)c2C)c2ccc(O)cc2)cc1F [Example 164, 5-[2-(2-{2-fluoro-4-[2-(morpholin-4-yl)ethoxy]phenyl}acetyl)-7-{[(3S)-3-(piperidin-1-ylmethyl)-3,4-dihydro-1H-isoquinolin-2-yl]carbonyl}-3,4-dihydro-1H-isoquinolin-6-yl]-N-(5-fluoro-6-methoxypyridin-3-yl)-N-(4-hydroxyphenyl)-1,2-dimethylpyrrole-3-carboxamide] | 0.08 nM | 0.6 nM | 7.5 | 0.13 nM | 9.3 nM | 120.8 | 0.0054 µM | 9.1529 | 0.0497 µM
4 | Cc1c(N(C(=O)c2cc(-c3cc4c(cc3C(=O)N3Cc5ccccc5C[C@H]3CN3CCCCC3)CN(C(=O)Cc3ccc(OCCN5CCOC[C@H]5C)cc3F)CC4)n(C)c2C)c2ccc(O)cc2)cc(C#N)n1C [Example 166, N-(5-cyano-1,2-dimethylpyrrol-3-yl)-5-{2-[2-(2-fluoro-4-{2-[(3R)-3-methylmorpholin-4-yl]ethoxy}phenyl)acetyl]-7-{[(3S)-3-(piperidin-1-ylmethyl)-3,4-dihydro-1H-isoquinolin-2-yl]carbonyl}-3,4-dihydro-1H-isoquinolin-6-yl}-N-(4-hydroxyphenyl)-1,2-dimethylpyrrole-3-carboxamide] | 0.04 nM | 0.3 nM | 5.8 | 0.16 nM | 2.7 nM | 62.8 | 0.0045 µM | 6.5639 | 0.0298 µM
5 | COc1ccc(N(C(=O)c2cc(-c3cc4c(cc3C(=O)N3Cc5ccccc5C[C@H]3CN3CCCCC3)CN(C(=O)Cc3ccc(OCCN5CCOCC5)cc3F)CC4)n(C)c2C)c2ccc(O)cc2)cc1C#N [Example 167, N-(3-cyano-4-methoxyphenyl)-5-[2-(2-{2-fluoro-4-[2-(morpholin-4-yl)ethoxy]phenyl}acetyl)-7-{[(3S)-3-(piperidin-1-ylmethyl)-3,4-dihydro-1H-isoquinolin-2-yl]carbonyl}-3,4-dihydro-1H-isoquinolin-6-yl]-N-(4-hydroxyphenyl)-1,2-dimethylpyrrole-3-carboxamide] | 0.05 nM | 0.3 nM | 6.5 | 0.15 nM | 8.4 nM | 171.4 | 0.0078 µM | 8.5769 | 0.0669 µM
6 | Cc1c(N(C(=O)c2cc(-c3cc4c(cc3C(=O)N3Cc5ccccc5C[C@H]3COCC3CC3)CN(C(=O)Cc3ccc(OCCN5CCOCC5)cc3F)CC4)n(C)c2C)c2ccc(O)cc2)cc(C#N)n1C [Example 170, N-(5-cyano-1,2-dimethyl-pyrrol-3-yl)-5-[7-[(3S)-3-(cyclopropylmethoxymethyl)-3,4-dihydro-1H-isoquinoline-2-carbonyl]-2-[2-[2-fluoro-4-(2-morpholinoethoxy)phenyl]acetyl]-3,4-dihydro-1H-isoquinolin-6-yl]-N-(4-hydroxyphenyl)-1,2-dimethyl-pyrrole-3-carboxamide] | 0.3 nM | 1.3 nM | 4.3 | 1.06 nM | 4.5 nM | 15.0 | 0.0047 µM | 6.4831 | 0.0306 µM

Further molecules by falling Ki (BCL2 WT), results first:

Row | Ki (BCL2 WT) | Ki (BCL2 G101V [1]) | TR_FRET EKI G101V/WT selectivty ratio (BCL2 G101V [2]) | Ki (BCL2 D103Y) | Ki (BCLXL WT) | TR_FRET EKI BCLxL/WT selectivty ratio (BCLXL WT) | Compound | IC50 (KMS-12-PE Bcl-2 WT) | Ratio (G101V/WT) (KMS-12-PE Bcl-2 G101V) | IC50 (KMS-12-PE Bcl-2 G101V)
7 | 0.11 nM | 0.5 nM | 4.7 | 0.22 nM | 11 nM | 100.0 | Cc1c(C(=O)N(c2ccc(O)cc2)c2ccc(OC(C)C)c(C#N)c2)cc(-c2cc3c(cc2C(=O)N2Cc4ccccc4C[C@H]2CN2CCCCC2)CN(C(=O)Cc2ccc(OCCN4CCOCC4)cc2F)CC3)n1C [Example 168, N-(3-cyano-4-isopropoxyphenyl)-5-[2-(2-{2-fluoro-4-[2-(morpholin-4-yl)ethoxy]phenyl}acetyl)-7-{[(3S)-3-(piperidin-1-ylmethyl)-3,4-dihydro-1H-isoquinolin-2-yl]carbonyl}-3,4-dihydro-1H-isoquinolin-6-yl]-N-(4-hydroxyphenyl)-1,2-dimethylpyrrole-3-carboxamide] | 0.0075 µM | 7.4599 | 0.0558 µM
8 | 0.09 nM | 0.4 nM | 4.6 | 0.36 nM | 1.2 nM | 12.8 | CCOC[C@@H]1Cc2ccccc2CN1C(=O)c1cc2c(cc1-c1cc(C(=O)N(c3ccc(O)cc3)c3cc(C#N)n(C)c3C)c(C)n1C)CCN(C(=O)Cc1ccc(OCCN3CCOCC3)cc1F)C2 [Example 169, N-(5-cyano-1,2-dimethyl-pyrrol-3-yl)-5-[7-[(3S)-3-(ethoxymethyl)-3,4-dihydro-1H-isoquinoline-2-carbonyl]-2-[2-[2-fluoro-4-(2-morpholinoethoxy)phenyl]acetyl]-3,4-dihydro-1H-isoquinolin-6-yl]-N-(4-hydroxyphenyl)-1,2-dimethyl-pyrrole-3-carboxamide] | 0.0049 µM | 5.082 | 0.0248 µM
9 | 0.04 nM | 0.8 nM | 21.1 | 0.13 nM | 10 nM | 277.8 | COc1ccc(N(C(=O)c2cc(-c3cc4c(cc3C(=O)N3Cc5ccccc5C[C@H]3CN3CCCCC3)CN(C(=O)Cc3ccc(OCCN5CCOCC5)cc3F)CC4)n(C)c2C)c2ccc(O)cc2)cn1 [Example 165, 5-[2-(2-{2-fluoro-4-[2-(morpholin-4-yl)ethoxy]phenyl}acetyl)-7-{[(3S)-3-(piperidin-1-ylmethyl)-3,4-dihydro-1H-isoquinolin-2-yl]carbonyl}-3,4-dihydro-1H-isoquinolin-6-yl]-N-(4-hydroxyphenyl)-N-(6-methoxypyridin-3-yl)-1,2-dimethylpyrrole-3-carboxamide] | 0.0092 µM | 9.0393 | 0.0828 µM
10 | 0.03 nM | 0.2 nM | 6.3 | 0.18 nM | 1.5 nM | 55.6 | Cc1c(C(=O)N(c2ccc(O)cc2)c2cc(C#N)n(C(F)F)c2C)cc(-c2cc3c(cc2C(=O)N2Cc4ccccc4C[C@H]2CN2CCCCC2)CN(C(=O)Cc2ccc(OCCN4CCN(C)CC4)cc2F)CC3)n1C [Example 160, N-[5-cyano-1-(difluoromethyl)-2-methylpyrrol-3-yl]-5-[2-(2-{2-fluoro-4-[2-(4-methylpiperazin-1-yl)ethoxy]phenyl}acetyl)-7-{[(3S)-3-(piperidin-1-ylmethyl)-3,4-dihydro-1H-isoquinolin-2-yl]carbonyl}-3,4-dihydro-1H-isoquinolin-6-yl]-N-(4-hydroxyphenyl)-1,2-dimethylpyrrole-3-carboxamide] | 0.0113 µM | 3.8053 | 0.043 µM

Source: patent US20250179047A1, “5-[7-(3,4-DIHYDRO-1H-ISOQUINOLINE-2-CARBONYL)-1,2,3,4 TETRAHYDROISOQUINOLIN-6-YL]-1H-PYRROLE-3-CARBOXAMIDE DERIVATIVES, PHARMACEUTICAL COMPOSITIONS CONTAINING THEM AND THEIR USES AS PRO-APOPTOTIC AGENTS” (LES LABORATOIRES SERVIER, priority 2022, published 2025)
